Measured values as given in patent publication US11273172B2, “Synergistic combination of oligonucleotides and chemotherapeutic for treating cancer” (THE BOARD OF TRUSTEES OF THE UNIVERSITY OF ILLINOIS, priority 2017, dated 2022).
Several values for one entry are separate records, joined by “and”; a condition that tells them apart may be missing. Equal values may be shown once.

Tests used:
Assay in all cases: MTT cell death assay, chemotherapeutic with and without MADD siRNA knockdown
[1] = tested on: SU.86.86 pancreatic cancer cells; type: cell-based; settings: siRNA 10 nM
Method: (§1) Cells are cultured and maintained at 37° C. in a humidified atmosphere containing 5% CO2 as described above. On Day 0, Cells are seeded in […] tissue culture dishes (Corning; Cat Number: 353003) to attain 60-70% confluence. In parallel, cells are also seeded in one 96-well plate (Corning; Cat number: 353072) for analysis of survival before reseeding. After 12-18 hours (Day 1), cells are transfected with Scramble or MADD siRNA at 10 nM concentration. The sequences of siRNAs (double-stranded) used are:
(§2) On Day 4, when cells are properly adhered and retained their shape in 96-well plates, drugs are added. All drugs are diluted in complete media on the same day prior to the addition to the cells. In untreated cells, media is replaced with complete media. Two hundred μl volume of media (with or without drugs) is used for the drug treatment assay. Plates are incubated 24 hours, 48 hours and 72 hours at 37° C. in humidified CO2 incubator.
(§3) An MTT assay is performed to determine relative survival after drug treatment as described above. MTT (3-[4,5-Dimethylthiazol-2-yl]-2,5-diphenyltetrazolium bromide; Thiazolyl blue) is purchased from Sigma Aldrich (Cat number: M5655). MTT is dissolved in sterile DPBS at the concentration of 5 mg/ml and filtered through […] syringe filter (Corning; Cat number: 431220). Ten μl of MTT solution is added per well of 96-well plate. Plates are incubated for 2 hours at 37° C. in the humidified CO2 incubator. After 2 hours, media is aspirated using vacuum inside the biosafety hood. Purple colored crystals formed in viable cells are dissolved by adding 100 μl of Dimethyl sulfoxide (Thermo Fisher Scientific; Cat number D128-500) Plates are kept on shaker for 10 minutes for compete dissolution of crystals and absorbance is recorded at 595 nm using Bio-Rad iMark microplate reader. Data is analyzed in MICROSOFT EXCEL® software. Relative survival is calculated with respect to absorbance of control (untreated cells) to determine the effect of transfection as well as combination treatment.
(§4) Each data set takes into account any spontaneous cell death which is observed upon transfection with Scramble siRNA; the amount of spontaneous cell death from Scramble siRNA transfection (baseline) is subtracted from the amount of cell death observed in each siRNA transfection reaction to yield a Net Percent (Net %) cell death after accounting for Scrambled siRNA-induced cell death.
as §1, with “(double stranded)” for “(double-stranded)”
as §2, with “added. Doxorubicin was added at a working concentration of 5.0 nM, 9.375 nM, 0.075 μM, 0.25 μM, 0.5 μM, and 0.8 μM.” for “added.”
(§5) An MTT assay is performed to determine relative survival after drug treatment as described above. MTT (3-[4,5-Dimethylthiazol-2-yl]-2,5-diphenyltetrazolium bromide; Thiazolyl blue) is purchased from Sigma Aldrich (Cat number: M5655). MTT is dissolved in sterile DPBS at the concentration of 5 mg/ml and filtered through […] syringe filter (Corning; Cat number: 431220). Ten μl of MTT solution is added per well of 96-well plate. Plates are incubated for 2 hours at 37° C. in the humidified CO2 incubator. […]

[2] = tested on: K562 chronic myelogenous leukemia cells; type: cell-based; settings: siRNA 10 nM
Method: as §1, §2, §3, §4
as §1, with “(double stranded)” for “(double-stranded)”
as §2, with “added. Doxorubicin was added at a working concentration of 5.0 nM, 9.375 nM, 0.075 μM, 0.25 μM, 0.5 μM, and 0.8 μM.” for “added.”
as §5

H2227 lung cancer cells = type: cell-based; settings: siRNA 10 nM
Method: as §1, §2, §3, §4
as §1, with “(double stranded)” for “(double-stranded)”
as §2, with “added. Doxorubicin was added at a working concentration of 5.0 nM, 9.375 nM, 0.075 μM, 0.25 μM, 0.5 μM, and 0.8 μM.” for “added.”
as §5

[3] = tested on: C643 thyroid cancer cells; type: cell-based, human; settings: Sorafinib 0.975 μM, siRNA 10 nM, 48 hours post Sorafinib treatment
Method: as §1, §2, §3, §4

[4] = tested on: CFPAC-1 pancreatic cancer cells; type: cell-based; settings: siRNA 10 nM, 72 hours post TRAIL treatment
Method: as §1, with “(double stranded)” for “(double-stranded)”
as §2, with “24 h,” for “24 hours,”, “48 h” for “48 hours”
as §3, §4

[5] = tested on: HCT116 colon cancer cells; type: cell-based; settings: TRAIL 50 ng/ml, siRNA 10 nM, 48 hours post TRAIL treatment
Method: as §1, with “(double stranded)” for “(double-stranded)”
as §2, with “24 h,” for “24 hours,”, “48 h” for “48 hours”
as §3, §4

[6] = tested on: SKOV3 ovarian cancer cells; type: cell-based; settings: TRAIL 50 ng/ml, siRNA 10 nM, 48 hours post TRAIL treatment
Method: as §1, with “(double stranded)” for “(double-stranded)”
as §2, with “24 h,” for “24 hours,”, “48 h” for “48 hours”
as §3, §4

[7] = Sorafinib 1.25 μM, 72 hours post-Sorafinib treatment
[8] = Sorafinib 5 μM, 24 hours post Sorafinib treatment
[9] = Sorafinib 0.3125 μM, 72 hours post Sorafinib treatment
[10] = Sorafinib 1.25 μM, 48 hours post Sorafinib treatment
[11] = Sorafinib 3 μM, 48 hours post Sorafinib treatment
[12] = Doxorubicin 5 nM, 24 hours post Doxorubicin treatment
[13] = Doxorubicin 0.25 μM, 72 hours post Doxorubicin treatment
[14] = Doxorubicin 0.5 μM, 48 hours post Doxorubicin treatment
[15] = TRAIL 6.25 ng/ml, 72 hours post TRAIL treatment
[16] = TRAIL 12.5 ng/ml, 48 hours post TRAIL treatment
[17] = Doxorubicin 9.375 nM, 48 hours post Doxorubicin treatment
[18] = Gemcitabine 25 nM, 48 hours post Gemcitabine treatment

CNC(=O)c1cc(Oc2ccc(NC(=O)Nc3ccc(Cl)c(C(F)(F)F)c3)cc2)ccn1 [Sorafinib]
Net % cell death after accounting for Scrambled siRNA [1, 7]: 0% | Observed % Cell death [1, 7]: 0% | Net % cell death after accounting for Scrambled siRNA [1, 8]: 17% | Observed % Cell death [1, 8]: 17% | Net % cell death after accounting for Scrambled siRNA [2, 9]: 0% | Observed % Cell death [2, 9]: 0% | Net % cell death after accounting for Scrambled siRNA [2, 10]: 0% | Observed % Cell death [2, 10]: 0% | Net % cell death after accounting for Scrambled siRNA (H2227 lung cancer cells; [11]): 18% | Observed % Cell death (H2227 lung cancer cells; [11]): 18% | Net % cell death after accounting for Scrambled siRNA [3]: 3% | Observed % Cell death [3]: 3%

MADD siRNA: siRNA targeting exon 13L of the MADD splice variant of the IG20 gene; SEQ ID NO: 4, 5′-GAUUGUCAUAGAUUCGCCGTT-3′ (chemistry not given here)
Net % cell death after accounting for Scrambled siRNA ([4]; TRAIL 6.25 ng/ml): 53% and 53 − 0 = 53% | Observed % Cell death ([4]; TRAIL 6.25 ng/ml): 53% | Net % cell death after accounting for Scrambled siRNA ([4]; TRAIL 12.5 ng/ml): 53% and 53 − 0 = 53% | Observed % Cell death ([4]; TRAIL 12.5 ng/ml): 53% | Observed % Cell death [5]: 43% | Net % cell death after accounting for Scrambled siRNA [6]: 29% and 38 − 9 = 29% | Observed % Cell death [6]: 38% | Net % cell death after accounting for Scrambled siRNA [1, 12]: 0% and 9 − 11 = 0% | Observed % Cell death [1, 12]: 9% | Observed % Cell death [1, 7]: 41% | Net % cell death after accounting for Scrambled siRNA [1, 8]: 0% and 9 − 11 = 0% | Observed % Cell death [1, 8]: 9% | Net % cell death after accounting for Scrambled siRNA [2, 13]: 47% and 59 − 12 = 47% | Observed % Cell death [2, 13]: 59% | Observed % Cell death [2, 14]: 53% | Net % cell death after accounting for Scrambled siRNA [2, 9]: 47% and 59 − 12 = 47% | Observed % Cell death [2, 9]: 59% | Observed % Cell death [2, 10]: 53% | Net % cell death after accounting for Scrambled siRNA [2, 15]: 47% and 59 − 12 = 47% | Observed % Cell death [2, 15]: 59% | Observed % Cell death [2, 16]: 53% | Observed % Cell death (H2227 lung cancer cells; [17]): 35% | Observed % Cell death (H2227 lung cancer cells; [18]): 35% | Observed % Cell death (H2227 lung cancer cells; [11]): 35% | Net % cell death after accounting for Scrambled siRNA [3]: 13% and 14 − 1 = 13% | Observed % Cell death [3]: 14%

Scrambled siRNA: non-specific Scramble siRNA, negative control; SEQ ID NO: 5, 5′-UUGCUAAGCGUCGGUCAAUTT-3′ (chemistry not given here)
Net % cell death after accounting for Scrambled siRNA ([4]; TRAIL 6.25 ng/ml): 17 − 17 = 0% | Observed % Cell death ([4]; TRAIL 6.25 ng/ml): 0% | Net % cell death after accounting for Scrambled siRNA ([4]; TRAIL 12.5 ng/ml): 0 − 0 = 0% | Observed % Cell death ([4]; TRAIL 12.5 ng/ml): 0% | Net % cell death after accounting for Scrambled siRNA [5]: 27 − 27 = 0% | Observed % Cell death [5]: 27% | Net % cell death after accounting for Scrambled siRNA [6]: 9 − 9 = 0% | Observed % Cell death [6]: 9% | Net % cell death after accounting for Scrambled siRNA [1, 12]: 11 − 11 = 0% | Observed % Cell death [1, 12]: 11% | Net % cell death after accounting for Scrambled siRNA [1, 7]: 28 − 28 = 0% | Observed % Cell death [1, 7]: 28% | Net % cell death after accounting for Scrambled siRNA [1, 8]: 11 − 11 = 0% | Observed % Cell death [1, 8]: 11% | Net % cell death after accounting for Scrambled siRNA [2, 13]: 12 − 12 = 0% | Observed % Cell death [2, 13]: 12% | Net % cell death after accounting for Scrambled siRNA [2, 14]: 49 − 49 = 0% | Observed % Cell death [2, 14]: 49% | Net % cell death after accounting for Scrambled siRNA [2, 9]: 12 − 12 = 0% | Observed % Cell death [2, 9]: 12% | Net % cell death after accounting for Scrambled siRNA [2, 10]: 49 − 49 = 0% | Observed % Cell death [2, 10]: 49% | Net % cell death after accounting for Scrambled siRNA [2, 15]: 12 − 12 = 0% | Observed % Cell death [2, 15]: 12% | Net % cell death after accounting for Scrambled siRNA [2, 16]: 49 − 49 = 0% | Observed % Cell death [2, 16]: 49% | Net % cell death after accounting for Scrambled siRNA (H2227 lung cancer cells; [17]): 28 − 28 = 0% | Observed % Cell death (H2227 lung cancer cells; [17]): 28% | Net % cell death after accounting for Scrambled siRNA (H2227 lung cancer cells; [18]): 28 − 28 = 0% | Observed % Cell death (H2227 lung cancer cells; [18]): 28% | Net % cell death after accounting for Scrambled siRNA (H2227 lung cancer cells; [11]): 28 − 28 = 0% | Observed % Cell death (H2227 lung cancer cells; [11]): 28% | Net % cell death after accounting for Scrambled siRNA [3]: 1 − 1 = 0% | Observed % Cell death [3]: 1%

B1: TRAIL: cytotoxic protein which induces apoptosis in tumor cells, but not in normal cells (protein, UniProt P50591 1-281, looked up)
Tumor necrosis factor ligand …: MAMMEVQGGPSLGQTCVLIVIFTVLLQSLCVAVTYVYFTNELKQMQDKYSKSGIACFLKEDDSYWDPNDEESMNSPCWQVKWQLRQLVRKMILRTSEETISTVQEKQQNISPLVRERGPQRVAAHITGTRGRSNTLSSPNSKNEKALGRKINSWESSRSGHSFLSNLHLRNGELVIHEKGFYYIYSQTYFRFQEEIKENTKNDKQMVQYIYKYTSYPDPILLMKSARNSCWSKDAEYGLYSIYQGGIFELKENDRIFVSVTNEHLIDMDHEASFFGAFLVG
Net % cell death after accounting for Scrambled siRNA ([4]; TRAIL 6.25 ng/ml): 30% | Observed % Cell death ([4]; TRAIL 6.25 ng/ml): 30% | Net % cell death after accounting for Scrambled siRNA ([4]; TRAIL 12.5 ng/ml): 8% | Observed % Cell death ([4]; TRAIL 12.5 ng/ml): 8% | Net % cell death after accounting for Scrambled siRNA [5]: 27% | Observed % Cell death [5]: 27% | Net % cell death after accounting for Scrambled siRNA [6]: 13% | Observed % Cell death [6]: 13% | Net % cell death after accounting for Scrambled siRNA [2, 15]: 0% | Observed % Cell death [2, 15]: 0% | Net % cell death after accounting for Scrambled siRNA [2, 16]: 0% | Observed % Cell death [2, 16]: 0%
